Reference: ChEMBL document CHEMBL6078659, “Comprehensive Insights into the Development of Antitoxoplasmosis Drugs: Current Advances, Obstacles, and Future Perspectives” (J Med Chem, 2024)
In brackets after ≈: the same amount, converted by molar mass. Starred links: 1 amine or outer side, 2 acyl side, 3 side chain; linkers in the order of their positions; H or OH if unused. Non-standard residues stand in square brackets, D forms with d. Residues, ends and D or L forms follow the SMILES beside them. X1 = CC[C@@H](C)[C@@H](O[*:1])C(=O)[*:2]; NMeVal(β-OH) = CN[C@H](C(=O)O)C(C)(C)O; NMeF = CN[C@@H](Cc1ccccc1)C(=O)O; NMeV = CN[C@H](C(=O)O)C(C)C

Assays:
Toxoplasma gondii [1] = test: Antiparasitic activity against Toxoplasma gondii RH tachyzoites infected in human HFF cells assessed as parasitic growth inhibition; type: functional, organism-based
[2] = biological target: T1, Bifunctional dihydrofolate reductase-thymidylate synthase (Toxoplasma gondii, UniProt Q07422); test: Inhibition of Toxoplasma gondii Dihydrofolate reductase
T1 sequence (Q07422 whole entry): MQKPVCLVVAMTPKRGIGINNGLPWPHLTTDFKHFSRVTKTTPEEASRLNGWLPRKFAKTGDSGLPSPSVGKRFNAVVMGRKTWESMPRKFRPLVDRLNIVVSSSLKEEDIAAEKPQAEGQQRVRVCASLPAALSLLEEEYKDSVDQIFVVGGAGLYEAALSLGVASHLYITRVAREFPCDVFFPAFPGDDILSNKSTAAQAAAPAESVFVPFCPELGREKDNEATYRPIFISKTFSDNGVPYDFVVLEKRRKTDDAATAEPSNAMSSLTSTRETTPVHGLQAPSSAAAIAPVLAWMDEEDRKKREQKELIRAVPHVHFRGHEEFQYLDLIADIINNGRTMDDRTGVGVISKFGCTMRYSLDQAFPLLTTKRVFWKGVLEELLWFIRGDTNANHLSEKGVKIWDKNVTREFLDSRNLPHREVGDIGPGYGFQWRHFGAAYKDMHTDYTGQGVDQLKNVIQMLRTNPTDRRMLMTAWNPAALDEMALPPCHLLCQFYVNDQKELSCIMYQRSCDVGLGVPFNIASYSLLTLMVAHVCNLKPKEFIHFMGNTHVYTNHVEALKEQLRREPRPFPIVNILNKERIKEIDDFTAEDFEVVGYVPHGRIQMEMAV

[3] = Cytotoxicity against African green monkey Vero cells assessed as reduction in cell viability by MTT assay; type: toxicity, cell-based; conditions: African green monkey (Chlorocebus sabaeus)
[4] = biological target: T1, Bifunctional dihydrofolate reductase-thymidylate synthase; test: Inhibition of Toxoplasma gondii thymidylate synthase
[5] = Cytotoxicity against African green monkey Vero cells by MTT assay; type: toxicity, cell-based; conditions: African green monkey (Chlorocebus sabaeus)
[6] = Inhibition of Toxoplasma gondii Farnesyl pyrophosphate synthase
Toxoplasma gondii [7] = test: Antiparasitic activity against Toxoplasma gondii RH; type: functional, organism-based
Toxoplasma gondii [8] = test: Antiparasitic activity against Toxoplasma gondii RH infected in human HFF cells; type: functional, organism-based
Toxoplasma gondii [9] = test: Antiparasitic activity against Toxoplasma gondii; type: functional, organism-based
Toxoplasma gondii [10] = test: Antiparasitic activity against Toxoplasma gondii RH infected in human HFF cells assessed as reduction in parasitic growth; type: functional, organism-based

Compound: O=C1CCC[C@@H]2[C@H]3CCCN4CCC[C@@H](CN12)[C@@H]34 [MATRINE]
- IC50 (Toxoplasma gondii [1]): 1010 µM

Compound: O=C(c1ccccc1O)c1[nH]c(Cl)c(Cl)c1-n1c(C(=O)c2ccc(Cl)cc2O)cc(Cl)c1Cl
- IC50 [2]: 0.16 µM

Compound: COC(=O)/C=C(\C)CCC=C(C)C
- IC50 [3]: 9 µg/mL (≈ 49.4 µM)

Compound: C[C@H]1[C@H](N2CCS(=O)(=O)CC2)O[C@@H]2O[C@@]3(C)CC[C@H]4[C@H](C)CC[C@@H]1[C@@]24OO3 [ARTEMIFONE]
- IC50 [4]: 0.12 µM

Compound: C=CCC1[C@H](O[Si](C)(C)C(C)(C)C)C[C@@H](C(=O)OC)N1C(=O)OC(C)(C)C (some centres undefined)
- IC50 (Toxoplasma gondii [1]): 3.9 µM

Compound: C/C(=N\Nc1nc(-c2ccc(Cl)c(Cl)c2)cs1)c1ccc(Nc2nc(N)nc(N)n2)cc1
- IC50 [5]: 14.9 µg/mL

Compound: O=C1C=C2C=C[C@@H]3C[C@@]2(O1)[C@H]1CCCCN31 [SECURININE]
- IC50 (Toxoplasma gondii [1]): 9.8 µM

Compound: CC[C@]1(C)NC(=O)[C@H](CCCCCC(=O)[C@@H](C)OC(=O)Oc2ccccc2)NC(=O)[C@H]2C[C@H](C)CN2C(=O)[C@H](Cc2ccccc2)NC1=O
- IC50 [6]: 0.0113 µM

Compound: COc1cc(-c2cc(=O)c3c(O)cc(O)cc3o2)cc(OC)c1O [TRICIN]
- IC50 (Toxoplasma gondii [7]): 12.9 µg/mL

Compound: CC(C)=CCC/C(C)=C/C=O [CITRAL]
- IC50 [3]: 9 µg/mL (≈ 59.1 µM)

Compound: C[C@H](NC(=O)OC(C)(C)C)C(=O)OC1O[C@@H]2O[C@@]3(C)CC[C@H]4[C@H](C)CC[C@@H]([C@H]1C)[C@@]24OO3 (some centres undefined)
- IC50 [4]: 41 µM

Compound: CCCCCCNCC(O)(P(=O)(O)O)P(=O)(O)O
- IC50 [6]: 4.7 µM

Compound: COc1cc(O)c2ccc(-c3ccc(O)cc3)[o+]c2c1
- IC50 (Toxoplasma gondii [7]): 1.48 µg/mL

Compound: O=c1c2ccc(Oc3ccc(OC(F)(F)F)cc3)cc2[nH]c2cc(Cl)cc(F)c12
- IC50 (Toxoplasma gondii [1]): 0.03 µM

Compound: CC(C)(C)[Si](C)(C)O[C@@H]1C[C@@H](/C=C\I)N2CCCC[C@]12C
- IC50 (Toxoplasma gondii [1]): 3.9 µM

Compound: CC1=CC[C@H]2[C@H]3[C@@H]1[C@]2(C)CC[C@H]3C(C)C
- IC50 [3]: 9.94 µg/mL (≈ 48.6 µM)

Compound: CCCCCCCCCCS(=O)(=O)CC(P(=O)(O)O)P(=O)(O)O
- IC50 [6]: 0.11 µM

Compound: Fc1ccc(-c2csc(N/N=C/C3CC3)n2)cc1
- IC50 (Toxoplasma gondii [8]): 18.1 µg/mL (≈ 69.2 µM)
- IC50 [5]: 18 µg/mL

Compound: O=C1CCC[C@@H]2[C@H]3CCC[N+]4([O-])CCC[C@@H](CN12)[C@@H]34 (some centres undefined) [OXYMATRINE]
- IC50 (Toxoplasma gondii [1]): 843 µM

Compound: C=C(C)[C@@H]1CC[C@]2(CO)CC[C@]3(C)[C@H](CC[C@@H]4[C@@]5(C)CCC(=O)C(C)(C)[C@@H]5CC[C@]43C)[C@@H]12 [BETULONE]
- IC50 (Toxoplasma gondii [7]): 2.7 µM

Compound: CC[C@@H](C)[C@H]1OC(=O)[C@H](C(C)(C)O)N(C)C(=O)[C@H](CC(C)C)NC(=O)[C@H](C(C)C)N(C)C(=O)[C@H]([C@@H](C)CC)NC(=O)[C@@H]2CCCN2C(=O)[C@H](Cc2ccccc2)N(C)C(=O)[C@H](Cc2ccccc2)NC(=O)[C@H](C(C)C)N(C)C1=O [BASIFUNGIN] (cyclo(F[NMeF]PI[NMeV]L[NMeVal(β-OH)][X1][NMeV]))
- IC50 [2]: 0.3 µM

Compound: C/C=C/c1cc(OC)c2c(c1)[C@@H](C)[C@H](c1ccc3c(c1)OCO3)O2 [LICARINE B]
- IC50 (Toxoplasma gondii [7]): 14 µg/mL

Compound: CC1(C)CC[C@]2(C(=O)O)CC[C@]3(C)C(=CC[C@@H]4[C@@]5(C)CC[C@H](O)[C@@](C)(CO)[C@@H]5CC[C@]43C)[C@@H]2C1 [HEDERAGENIN]
- IC50 (Toxoplasma gondii [7]): 548 µM

Compound: Oc1cc(O)c2ccc(-c3ccc(O)c(O)c3)[o+]c2c1 [LUTEOLINIDIN]
- IC50 (Toxoplasma gondii [7]): 0.66 µg/mL

Compound: Cc1cc(C)c(O)c(C(=O)c2cc(Br)c(Br)[nH]2)c1
- IC50 [2]: 0.09 µM

Compound: Cc1ccc(CSc2ncnc3c2ncn3[C@@H]2C[C@H](CO)[C@@H](O)[C@H]2O)cc1
- IC50 [2]: 0.0119 µM

Compound: O=C(c1cc(Br)c(F)[nH]1)c1cc(Cl)cc(Cl)c1O
- IC50 [2]: 0.17 µM

Compound: COc1ccc2c3ccnc(C)c3n(C)c2c1
- IC50 (Toxoplasma gondii [1]): 1.8 µM

Compound: C=CCSSSCC=C [ALLITRIDIN]
- IC50 [3]: 28 µg/mL (≈ 157 µM)

Compound: NC(=S)N/N=C(/COc1ccc(F)cc1)c1ccc(Cl)cc1
- IC50 (Toxoplasma gondii [9]): 1.19 µM
- IC50 [5]: 1.19 µM

Compound: O=c1cc(-c2cccc3c2Sc2ccccc2S3)oc(N2CCOCC2)c1 [KU-55933]
- IC50 [2]: 0.00215 µM

Compound: C=CCSSCC=C [DIALLYLDISULFIDE]
- IC50 [3]: 66.9 µg/mL (≈ 457 µM)

Compound: C=CCSSSC
- IC50 [3]: 66 µg/mL (≈ 433 µM)

Compound: COc1ccc(/C(COc2ccc(F)cc2)=N\NC(N)=S)cc1
- IC50 (Toxoplasma gondii [9]): 1.09 µM
- IC50 [5]: 1.09 µM

Compound: C[C@H]1[C@H](C)CC[C@]2(C(=O)Nc3nnn[nH]3)CC[C@]3(C)C(=CC[C@@H]4[C@@]5(C)CCC(=O)C(C)(C)[C@@H]5CC[C@]43C)[C@H]12 (single isomer, unassigned)
- IC50 (Toxoplasma gondii [7]): 219 µM

Compound: CC[C@]1(C)NC(=O)[C@H](CCCCCC(=O)[C@@H](C)OC(C)=O)NC(=O)[C@H]2C[C@H](C)CN2C(=O)[C@H](Cc2ccccc2)NC1=O
- IC50 [6]: 0.0102 µM

Compound: C[C@H]1[C@H](N2CCSCC2)O[C@@H]2O[C@@]3(C)CC[C@H]4[C@H](C)CC[C@@H]1[C@@]24OO3 [ARTEMISIDE]
- IC50 [4]: 0.1 µM

Compound: O=C(CCCCSc1nc(-c2ccc(-c3ccccc3)cc2)cc(=O)[nH]1)NO
- IC50 [6]: 0.034 µM

Compound: COc1cccc(CC(=O)Nc2ccc(C(=O)NO)cc2)c1
- IC50 [6]: 0.56 µM

Compound: Oc1ccc(-c2ccc3c(O)cc(O)cc3[o+]2)cc1
- IC50 (Toxoplasma gondii [7]): 1.08 µg/mL

Compound: C=CCC1[C@H](O[Si](C)(C)C(C)(C)C)C[C@@H](C(=O)OC)N1CC=C (some centres undefined)
- IC50 (Toxoplasma gondii [1]): 5.6 µM

Compound: Cn1cc(-c2ccc3c(c2)CCN3C(=O)Cc2cccc(C(F)(F)F)c2)c2c(N)ncnc21
- IC50 (Toxoplasma gondii [10]): < 1 µM

Compound: COc1cc(OC)c2ccc(-c3ccc(O)cc3)[o+]c2c1
- IC50 (Toxoplasma gondii [7]): 0.53 µg/mL

Compound: O=C(c1ccccc1O)c1[nH]c(Cl)c(Cl)c1-n1c(C(=O)c2ccccc2O)cc(Cl)c1Cl
- IC50 [2]: 0.31 µM

Compound: CC1(C)N=C(N)N=C(N)N1OCCCOc1ccc(OC(F)(F)F)cc1Cl
- IC50 [2]: 0.02 µM

Compound: N=C(N)N/N=C/c1c(Cl)cccc1Cl [GUANABENZ]
- IC50 (Toxoplasma gondii [10]): 6 µM
